Like-named read-outs stand apart in the source and are kept apart here.
How the values were obtained:
[1] = target: T1, recombinant soluble tissue factor and recombinant human factor VIIa (TF-VIIa) (Homo sapiens, UniProt P08709); assay: TF-VIIa Assay; type: biochemical; conditions: for IC50: read-out: IC50 TF-VIIa
T1 construct: conversion of coagulation factor VII to VIIa by Xa; purchased American Diagnostica, Greenwich Conn; host or cells: VIIa purchased; soluble TF made in house in E. coli

Human factor Xa = Human factor Xa (Homo sapiens, UniProt P00742); assay: Xa Assay; type: biochemical; parameters: purchased Enzyme Research Laboratories, South Bend Ind
Human factor Xa, sequence (P00742 41-179 limits assumed): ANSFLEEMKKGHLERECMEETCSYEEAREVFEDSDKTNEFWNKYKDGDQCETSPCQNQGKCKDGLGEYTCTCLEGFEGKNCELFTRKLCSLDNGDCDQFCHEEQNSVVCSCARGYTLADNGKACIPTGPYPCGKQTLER
Human factor Xa, sequence (P00742 235-488 limits assumed): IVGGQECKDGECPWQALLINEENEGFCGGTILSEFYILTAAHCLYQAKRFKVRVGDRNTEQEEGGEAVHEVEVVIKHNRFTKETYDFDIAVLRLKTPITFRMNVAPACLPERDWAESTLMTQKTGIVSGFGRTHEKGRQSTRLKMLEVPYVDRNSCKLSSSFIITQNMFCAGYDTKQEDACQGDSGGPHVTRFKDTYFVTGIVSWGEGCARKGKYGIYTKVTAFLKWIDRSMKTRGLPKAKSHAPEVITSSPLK

T1 sequence (P08709 61-212 limits assumed): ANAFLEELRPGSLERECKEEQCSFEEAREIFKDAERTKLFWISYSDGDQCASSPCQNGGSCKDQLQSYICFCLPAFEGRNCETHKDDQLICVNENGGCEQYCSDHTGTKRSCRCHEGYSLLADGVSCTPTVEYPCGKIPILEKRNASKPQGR
T1 sequence (P08709 213-466 limits assumed): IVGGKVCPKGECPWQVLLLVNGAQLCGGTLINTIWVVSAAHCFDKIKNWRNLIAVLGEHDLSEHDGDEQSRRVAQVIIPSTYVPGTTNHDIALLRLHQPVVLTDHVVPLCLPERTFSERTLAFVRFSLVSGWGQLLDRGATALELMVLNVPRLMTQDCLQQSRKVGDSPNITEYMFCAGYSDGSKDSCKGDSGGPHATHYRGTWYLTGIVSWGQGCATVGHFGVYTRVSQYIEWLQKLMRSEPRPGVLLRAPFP
T1 sequence (P13726 33-251 partner limits assumed): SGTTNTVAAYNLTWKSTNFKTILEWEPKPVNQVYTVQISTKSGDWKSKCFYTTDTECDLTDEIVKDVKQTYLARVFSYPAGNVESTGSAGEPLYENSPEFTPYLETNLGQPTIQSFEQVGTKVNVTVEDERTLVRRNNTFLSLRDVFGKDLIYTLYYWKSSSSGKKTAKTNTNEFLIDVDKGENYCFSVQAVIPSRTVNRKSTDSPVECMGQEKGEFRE

| % Inhibition TF-VIIa (100 µM) ([1]; inhibitor at 100 µM) [%] | % Inhibition Factor Xa (100 µM) (Human factor Xa; inhibitor at 100 µM) [%] | Compound | also measured |
| --- | --- | --- | --- |
|  |  | N=C(N)c1ccc(CNC(=O)Cn2c(-c3ccc(-c4ccccc4)cc3)c(Cl)nc(NCCc3cccnc3)c2=O)cc1 [Example 21] | % Inhibition TF-VIIa (30 µM) [1]: 8% @ 30; % Inhibition Factor Xa (30 µM) (Human factor Xa): 21% @ 30 |
| 0 | 0 | Cc1c(Cl)nc(NCCc2cccnc2)c(=O)n1CC(=O)NCCc1ccncc1 [Example E-0005] |  |
|  |  | N=C(N)c1ccc(CNC(=O)Cn2c(-c3ccccc3)c(Cl)nc(NC3Cc4ccccc4C3)c2=O)cc1 [1507-08] | % Inhibition TF-VIIa (30 µM) ([1]; at 30 µM inhibitor): 7%; % Inhibition Factor Xa (30 µM) (Human factor Xa; at 30 µM inhibitor): 1% |
| 0 | 0 | O=C(Cn1c(-c2ccc(Cl)cc2)c(Cl)nc(NCCc2ccncc2)c1=O)NCCc1ccncc1 [Example E-0030] |  |
| 0 | 0 | COc1ccc(-c2c(Cl)nc(NCc3ccccc3)c(=O)n2CC(=O)NCCc2ccncc2)cc1 [Example E-0033] |  |
|  |  | Cc1cccc(Cl)c1CNc1nc(Cl)c(-c2ccccc2)n(CC(=O)NCc2ccc(C(=N)N)cc2)c1=O [1512-31] | % Inhibition TF-VIIa (30 µM) ([1]; at 30 µM inhibitor): 43%; % Inhibition Factor Xa (30 µM) (Human factor Xa; at 30 µM inhibitor): 14% |
|  |  | O=C(Cn1c(-c2ccc(-c3ccccc3)cc2)c(Cl)nc(NCc2ccccc2)c1=O)NCCc1cccnc1 [Example E-0110] | % Inhibition TF-VIIa (100 µM) [1]: 0%; % Inhibition Factor Xa (100 µM) (Human factor Xa): 3% |
| 0 | 1 | O=C(Cn1c(-c2cccc(Cl)c2)c(Cl)nc(NCCc2ccccc2)c1=O)NCCc1ccncc1 [Example E-0076] |  |
| 0 | 2 | O=C(Cn1c(-c2cccc(Cl)c2)c(Cl)nc(NCc2ccccc2)c1=O)NCCc1ccncc1 [Example E-0073] |  |
| 0 | 0 | O=C(Cn1c(-c2ccccc2)c(Cl)nc(NCCc2ccc(Cl)cc2)c1=O)NCCc1ccncc1 [Example E-0012] |  |
| 0 | 0 | O=C(Cn1c(-c2ccc(Cl)cc2)c(Cl)nc(NCCc2ccc(Cl)cc2)c1=O)NCCc1ccncc1 [Example E-0028] |  |
| 0 | 4 | O=C(Cn1c(-c2cccc(Cl)c2)c(Cl)nc(NCc2ccccc2)c1=O)NCCc1cccnc1 [Example E-0086] |  |
| 0 | 0 | O=C(Cn1c(CCc2ccccc2)c(Cl)nc(NCCc2ccc(Cl)cc2)c1=O)NCCc1ccncc1 [Example E-0068] |  |
| 0 | 0 | O=C(Cn1c(-c2ccc(Cl)cc2)c(Cl)nc(NCc2ccccc2)c1=O)NCCc1ccncc1 [Example E-0017] |  |
|  |  | N=C(N)NCC#CCNC(=O)Cn1c(-c2ccccc2)cnc(NCCc2ccccc2)c1=O [Example 36] | % Inhibition TF-VIIa (30 µM) ([1]; at 30 µM inhibitor): 5%; % Inhibition Factor Xa (30 µM) (Human factor Xa; at 30 µM inhibitor): 0% |
|  |  | COc1ccc(-c2c(Cl)nc(NCCc3ccncc3)c(=O)n2CC(=O)NCc2ccc(C(=N)N)cc2)cc1 [1471-37] | % Inhibition TF-VIIa (30 µM) ([1]; at 30 µM inhibitor): 39%; % Inhibition Factor Xa (30 µM) (Human factor Xa; at 30 µM inhibitor): 7% |
| 0 | 0 | O=C(Cn1c(-c2ccccc2)c(Cl)nc(NCCc2cccc(Cl)c2)c1=O)NCCc1ccncc1 [Example E-0011] |  |
| 0 | 0 | O=C(Cn1c(-c2cccc(Cl)c2)c(Cl)nc(NCc2ccccc2)c1=O)NCCc1cccnc1 [Example E-0074] |  |
|  |  | O=C(Cn1c(-c2ccc(-c3ccccc3)cc2)c(Cl)nc(NCCc2ccc(Cl)cc2)c1=O)NCCc1ccncc1 [Example E-0052] | % Inhibition TF-VIIa (100 µM) [1]: 0%; % Inhibition Factor Xa (100 µM) (Human factor Xa): 0% |
| 4 | 6 | COc1ccc(-c2c(Cl)nc(NCCc3ccc(Cl)cc3)c(=O)n2CC(=O)NCCc2cccnc2)cc1 [Example E-0107] |  |
| 0 | 0 | O=C(Cn1c(-c2ccccc2)c(Cl)nc(NCCc2ccncc2)c1=O)NCCc1ccncc1 [Example E-0014] |  |
|  |  | N=C(N)c1ccc(CNC(=O)Cn2c(-c3ccccc3)c(Cl)nc(NCC3CC3)c2=O)cc1 [Example 1517-43] | % Inhibition TF-VIIa (30 µM) ([1]; at 30 µM): 25%; % Inhibition Factor Xa (30 µM) (Human factor Xa; at 30 µM): 0% |
| 0 | 0 | O=C(Cn1c(-c2ccc(Cl)cc2)c(Cl)nc(NCCc2ccccc2)c1=O)NCCc1ccncc1 [Example E-0026] |  |
|  |  | C[C@H](Nc1nc(Cl)c(-c2cccc(N)c2)n(CC(=O)NCc2ccc(C(=N)N)cc2)c1=O)C(=O)O [Example 135] | IC50 [1]: 6400 nM; % Inhibition Factor Xa at 100 μM (Human factor Xa; at 100 μM inhibitor): 6% at 100 μM |
| 0 | 3 | O=C(Cn1c(-c2cccc(Cl)c2)c(Cl)nc(NCCc2ccccc2)c1=O)NCCc1cccnc1 [Example E-0077] |  |
|  |  | CC(C)Nc1nc(Cl)c(-c2cccc([N+](=O)[O-])c2)n(CC(=O)NCc2ccc(C(N)=NO)cc2)c1=O [Example 61] | % Inhibition TF-VIIa (30 µM) ([1]; at 30 µM inhibitor): 1%; % Inhibition Factor Xa (30 µM) (Human factor Xa; at 30 µM inhibitor): 0% |

| % Inhibition TF-VIIa (100 µM) ([1]; inhibitor at 100 µM) [%] | % Inhibition Factor Xa (100 µM) (Human factor Xa; inhibitor at 100 µM) [%] | Compound | also measured |
| --- | --- | --- | --- |
|  |  | N=C(N)c1ccc(CNC(=O)Cn2c(-c3ccc(Cl)cc3)c(Cl)nc(NCCN3CCOCC3)c2=O)cc1 [1471-20] | % Inhibition TF-VIIa (30 µM) ([1]; at 30 µM inhibitor): 42%; % Inhibition Factor Xa (30 µM) (Human factor Xa; at 30 µM inhibitor): 34% |
| 5 | 3 | COc1ccc(-c2c(Cl)nc(NCCc3ccc(Cl)cc3)c(=O)n2CC(=O)NCCc2ccncc2)cc1 [Example E-0106] |  |
|  |  | N=C(N)c1ccc(CNC(=O)Cn2c(-c3ccccc3)c(Cl)nc(NCc3ccccn3)c2=O)cc1 [1507-24] | % Inhibition TF-VIIa (30 µM) ([1]; at 30 µM inhibitor): 0%; % Inhibition Factor Xa (30 µM) (Human factor Xa; at 30 µM inhibitor): 15% |
|  |  | N=C(N)c1ccc(CNC(=O)Cn2c(-c3ccc(-c4ccccc4)cc3)c(Cl)nc(NCCc3cccnc3)c2=O)cc1 [1471-72] | % Inhibition TF-VIIa (30 µM) ([1]; at 30 µM inhibitor): 15%; % Inhibition Factor Xa (30 µM) (Human factor Xa; at 30 µM inhibitor): 22% |
| 0 | 0 | O=C(Cn1c(CCc2ccccc2)c(Cl)nc(NCc2ccccc2)c1=O)NCCc1ccncc1 [Example E-0065] |  |
| 0 | 0 | O=C(Cn1c(Cc2ccccc2)c(Cl)nc(NCCc2ccncc2)c1=O)NCCc1ccncc1 [Example E-0062] |  |
| 4 | 0 | COc1ccc(-c2c(Cl)nc(NCCc3cccc(Cl)c3)c(=O)n2CC(=O)NCCc2ccncc2)cc1 [Example E-0035] |  |
| 0 | 0 | O=C(Cn1c(-c2ccc3c(c2)OCO3)c(Cl)nc(NCc2ccccc2)c1=O)NCCc1ccncc1 [Example E-0041] |  |
| 0 | 0 | O=C(Cn1c(Cc2ccccc2)c(Cl)nc(NCCN2CCOCC2)c1=O)NCCc1ccncc1 [Example E-0063] |  |
| 0 | 0 | O=C(Cn1c(CCc2ccccc2)c(Cl)nc(NCCN2CCOCC2)c1=O)NCCc1ccncc1 [Example E-0071] |  |
| 0 | 0 | COc1ccc(-c2c(Cl)nc(NCc3ccncc3)c(=O)n2CC(=O)NCCc2ccncc2)cc1 [Example E-0040] |  |
|  |  | COc1ccc(CCNC(=O)c2cc(N)cc(-c3c(Cl)nc(NC(C)C)c(=O)n3CC(=O)NCc3ccc(C(=N)N)cc3)c2)cc1 [Example 128-20] | IC50 [1]: 33 nM; inhibition at 100 µM (Human factor Xa; at 100 μM inhibitor): 39% |
|  |  | CCCCNc1nc(Cl)c(-c2ccccc2)n(CC(=O)NCc2ccc(C(=N)N)cc2)c1=O [Example 1517-35] | % Inhibition TF-VIIa (30 µM) ([1]; at 30 µM): 33%; % Inhibition Factor Xa (30 µM) (Human factor Xa; at 30 µM): 0% |
| 0 | 0 | COc1ccc(-c2c(Cl)nc(NCCc3cccnc3)c(=O)n2CC(=O)NCCc2ccncc2)cc1 [Example E-0037] |  |
|  |  | CC(C)Nc1nc(Cl)c(-c2cc(N)cc(C(N)=O)c2)n(CC(=O)NCc2ccc(C(=N)N)cc2)c1=O [Example 128-1] | IC50 [1]: 22 nM; inhibition at 100 µM (Human factor Xa; at 100 μM inhibitor): 25% |
|  |  | COc1ccc(-c2c(Cl)nc(NCc3ccccc3)c(=O)n2CC(=O)NCc2ccc(C(=N)N)cc2)cc1 [1471-33] | % Inhibition TF-VIIa (30 µM) ([1]; at 30 µM inhibitor): 31%; % Inhibition Factor Xa (30 µM) (Human factor Xa; at 30 µM inhibitor): 22% |
| 0 | 1 | COc1ccc(-c2c(Cl)nc(NCCN3CCOCC3)c(=O)n2CC(=O)NCCc2ccncc2)cc1 [Example E-0039] |  |
| 0 | 0 | Cc1c(Cl)nc(NCc2ccncc2)c(=O)n1CC(=O)NCCc1ccncc1 [Example E-0008] |  |
|  |  | O=C(Cn1c(-c2ccc(-c3ccccc3)cc2)c(Cl)nc(NCc2ccncc2)c1=O)NCCc1ccncc1 [Example E-0056] | % Inhibition TF-VIIa (100 µM) [1]: 0%; % Inhibition Factor Xa (100 µM) (Human factor Xa): 0% |
| 1 | 3 | O=C(Cn1c(-c2cccc(Cl)c2)c(Cl)nc(NCCc2cccc(Cl)c2)c1=O)NCCc1cccnc1 [Example E-0092] |  |
| 0 | 0 | O=C(Cn1c(-c2ccc3c(c2)OCO3)c(Cl)nc(NCCc2cccc(Cl)c2)c1=O)NCCc1ccncc1 [Example E-0043] |  |
| 0 | 0 | COc1ccc(-c2c(Cl)nc(NCCc3ccc(Cl)cc3)c(=O)n2CC(=O)NCCc2ccncc2)cc1 [Example E-0036] |  |
|  |  | O=C(Cn1c(-c2ccc(-c3ccccc3)cc2)c(Cl)nc(NCc2ccccc2)c1=O)NCCc1ccncc1 [Example E-0109] | % Inhibition TF-VIIa (100 µM) [1]: 2%; % Inhibition Factor Xa (100 µM) (Human factor Xa): 3% |
| 0 | 2 | COc1ccc(-c2c(Cl)nc(NCc3ccccc3)c(=O)n2CC(=O)NCCc2cccnc2)cc1 [Example E-0098] |  |
|  |  | COc1ccc(-c2c(Cl)nc(NCc3ccncc3)c(=O)n2CC(=O)NCc2ccc(C(=N)N)cc2)cc1 [1471-35] | % Inhibition TF-VIIa (30 µM) ([1]; at 30 µM inhibitor): 37%; % Inhibition Factor Xa (30 µM) (Human factor Xa; at 30 µM inhibitor): 22% |
|  |  | N=C(N)c1ccc(CNC(=O)Cn2c(Cc3ccccc3)c(Cl)nc(NCCc3ccccc3)c2=O)cc1 [Example 20] | % Inhibition TF-VIIa (30 µM) ([1]; at 30 µM inhibitor): 41% @ 30; % Inhibition Factor Xa (30 µM) (Human factor Xa; at 30 µM inhibitor): 6% @ 30 |

Reference: patent US6908919B2, “Substituted polycyclic aryl and heteroaryl pyrazinones useful for selective inhibition of the coagulation cascade” (Pharmacia Corporation, priority 1999, dated 2005)
